Assay results reported in PubChem BioAssay (NCI).
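1) Cells in 96-well plates. 2) Compound, 48 h, 5 concentrations. 3) Linear interpolation between surrounding doses. 4) Unreached endpoint = highest concentration. The concentration for full growth arrest is given as TGI.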

What was measured:
Test in all cases: growth of human tumour cells (NCI), 48 h
OVCAR-5 ovarian = test system: OVCAR-5 ovarian
UO-31 renal = test system: UO-31 renal
A549 NSCLC = test system: A549 NSCLC
U251 CNS = test system: U251 CNS
NCI-H522 lung = test system: NCI-H522 lung
CCRF-CEM leukemia = test system: CCRF-CEM leukemia
A498 renal = test system: A498 renal
SF-539 CNS = test system: SF-539 CNS
UACC-62 melanoma = test system: UACC-62 melanoma
HCT-116 colon = test system: HCT-116 colon
SNB-19 CNS = test system: SNB-19 CNS
IGROV1 ovarian = test system: IGROV1 ovarian
NCI-H460 lung = test system: NCI-H460 lung
786-0 renal = test system: 786-0 renal
UACC-257 melanoma = test system: UACC-257 melanoma
HL-60(TB) leukemia = test system: HL-60(TB) leukemia
SNB-75 CNS = test system: SNB-75 CNS
SK-OV-3 ovarian = test system: SK-OV-3 ovarian
OVCAR-4 ovarian = test system: OVCAR-4 ovarian
SR leukemia = test system: SR leukemia
LXFL 529 NSCLC = test system: LXFL 529 NSCLC
OVCAR-3 ovarian = test system: OVCAR-3 ovarian
COLO 205 colon = test system: COLO 205 colon
HCT-15 colon = test system: HCT-15 colon
HT29 colon = test system: HT29 colon
KM12 colon = test system: KM12 colon
DMS 114 small cell lung = test system: DMS 114 small cell lung
NCI-H226 lung = test system: NCI-H226 lung
HOP-62 NSCLC = test system: HOP-62 NSCLC
ACHN renal = test system: ACHN renal
LOX IMVI melanoma = test system: LOX IMVI melanoma
MALME-3M melanoma = test system: MALME-3M melanoma
SF-295 CNS = test system: SF-295 CNS
SK-MEL-5 melanoma = test system: SK-MEL-5 melanoma
DMS 273 small cell lung = test system: DMS 273 small cell lung
DLD-1 colon = test system: DLD-1 colon
MOLT-4 leukemia = test system: MOLT-4 leukemia
CAKI-1 renal = test system: CAKI-1 renal
NCI-H23 lung = test system: NCI-H23 lung
K-562 leukemia = test system: K-562 leukemia
SK-MEL-28 melanoma = test system: SK-MEL-28 melanoma
SF-268 CNS = test system: SF-268 CNS
SN12C renal = test system: SN12C renal
RPMI-8226 leukemia = test system: RPMI-8226 leukemia
HCC-2998 colon = test system: HCC-2998 colon
OVCAR-8 ovarian = test system: OVCAR-8 ovarian
M19-MEL melanoma = test system: M19-MEL melanoma
TK-10 renal = test system: TK-10 renal
EKVX NSCLC = test system: EKVX NSCLC
M14 melanoma = test system: M14 melanoma
SW-620 colon = test system: SW-620 colon
SK-MEL-2 melanoma = test system: SK-MEL-2 melanoma
PC-3 prostate = test system: PC-3 prostate
MDA-MB-231 breast = test system: MDA-MB-231 breast
DU-145 prostate = test system: DU-145 prostate
HS 578T breast = test system: HS 578T breast
RXF 393 renal = test system: RXF 393 renal
HOP-92 NSCLC = test system: HOP-92 NSCLC
NCI/ADR-RES ovarian = test system: NCI/ADR-RES ovarian
T-47D breast = test system: T-47D breast
MCF7 breast = test system: MCF7 breast
MDA-N = test system: MDA-N
MDA-MB-435 = test system: MDA-MB-435
BT-549 breast = test system: BT-549 breast

Measured: TGI

CCOC(=O)CC(NC(=O)c1[nH]cnc1/N=N/N(C)C)C(=O)OCC (stereo unspecified)
not listed: PC-3 prostate | MDA-MB-231 breast | DU-145 prostate | HS 578T breast | RXF 393 renal | HOP-92 NSCLC | NCI/ADR-RES ovarian | T-47D breast | MCF7 breast | MDA-N | MDA-MB-435 | BT-549 breast
> 100 µM: all other assays above

CC(=O)NNc1nc(C)c(C(/C=C/c2ccccc2O)=N/N=C(N)N)s1
not listed: LXFL 529 NSCLC | DMS 114 small cell lung | DMS 273 small cell lung | DLD-1 colon | M19-MEL melanoma
> 100 µM: all other assays above
